According to US20180280321A1, “COMPOSITIONS AND METHODS THAT INHIBIT QUORUM SENSING” (The Office of Innovation Commercialization, priority 2015, published 2018):
Entries after “also recorded” stand apart in the source; their conditions may differ. Like-named read-outs stand apart in the source and are kept apart here.

Assays:
MRSA isolate LAC [1] = assay type: in vivo, SKH1 mice; conditions: OHM injected subq near the site of infection four hours post-infection
HEK293 cells = assay: Eukaryotic cytotoxicity, XTT assay; assay type: cell-based, human; conditions: HEK293, 24-hour incubation, at concentrations required for agr-inhibition
Protocol: (§1) Sigma-Aldrich, St. Louis, Mo.) and phenazine methosulfate (PMS; Sigma-Aldrich, St. Louis, Mo.) were used to perform an XTT assay as previously described (Scuderio et al., 1988, Cancer Res. 48:4827-4833). After 24 hours, spent media was removed and fresh media containing the indicated drug concentrations or vehicle was added to the cells and incubated for an additional 24 hours. […] Cell viability was assessed by the metabolic reduction of tetrazolium measured at OD490. Data are presented as percent viable cells compared to vehicle control.

A549 cells = assay: Eukaryotic cytotoxicity, XTT assay; assay type: cell-based, human; conditions: A549, 24-hour incubation, at concentrations required for agr-inhibition
Protocol: as §1

HepG2 cells = assay: Eukaryotic cytotoxicity, XTT assay; assay type: cell-based, human; conditions: hepatocyte cell line (HepG2), 24-hour incubation, at concentrations required for agr-inhibition
Protocol: as §1

AgrAC and P2-FAM complex = AgrAC and P2-FAM complex (Staphylococcus aureus, UniProt P0A0I7); assay type: binding, S. aureus; conditions: EMSA, 2 μM AgrAC
USA300 isolate LAC = assay type: in vivo, SKH1 mice; conditions: for bacterial burden at the site of infection: LAC infected, single OHM treatment
[2] = test system: S. aureus LAC / LACΔagr in RAW 264.7 macrophages; assay type: cell-based, mouse; conditions: LAC pre-treated with 5 μg/mL OHM, RAW 264.7, MOI 1:1; vs vehicle
agr::P3 promoter [3] = assay type: cell-based, S. aureus
agr::P3 promoter [4] = assay type: cell-based; conditions: agr-I S. epidermidis AH3408, 5 μg/mL OHM, 24 hours
MRSA isolate LAC [5] = assay type: in vivo; conditions: STZ-treated diabetic C57BL/6 mice, OHM given along with 5×10^7 CFU LAC
S. aureus = assay type: cell-based; conditions: at concentrations that inhibit quorum sensing
AgrAC-C199S = AgrAC-C199S (Staphylococcus aureus, UniProt P0A0I7, C199S); assay type: binding, S. aureus; conditions: SPR, His-tagged AgrAC-C199S on NTA biosensor, 25° C.
human PMNs = assay type: cell-based; conditions: supernatant from OHM- versus vehicle-treated LAC, 5 μg/mL OHM, two hours
AgrC-WT isolate AH3469 = assay type: cell-based, S. aureus
[6] = test system: RNAIII, psm α and hla transcription; assay type: cell-based, S. aureus
[7] = test system: S. aureus LAC / LACΔagr in human PMNs; assay type: cell-based
[8] = target: AgrAC binding to agr promoter DNA (P2-FAM) (Staphylococcus aureus, UniProt P0A0I7); design: species or system S. aureus; conditions: bead-based flow cytometry, biotinylated AgrAC on SA beads, P2-FAM 1.6 μM

In the case of `O=C1c2cc(O)cc(O)c2C(=O)c2c(O)cc(CO)cc21` [OHM, 1,3,8-trihydroxy-6-(hydroxymethyl)anthracene-9,10-dione], the abscess formation (MRSA isolate LAC [1]) is reported as “limits abscess formation”, the “ulcer area (dermonecrosis)” value (MRSA isolate LAC [1]) is reported as “limits abscess formation and dermonecrosis” and the “cell viability (toxicity)” value (HEK293 cells) is reported as “non-toxic”. The “cell viability (toxicity)” value (A549 cells) was “non-toxic”, the “cell viability (toxicity)” value (HepG2 cells) was “non-toxic” and the “inhibition of AgrAC binding to agr promoter DNA” value (AgrAC and P2-FAM complex) was “dose-dependent inhibition”. For the same molecule, the “bacterial burden at the site of infection” value (USA300 isolate LAC; day seven post-infection) was “reduced”, the “bacterial burden at the site of infection” value (USA300 isolate LAC; day three post-infection) was “reduced” and the “differences between OHM and vehicle treated mice (abscesses and ulcers)” value (USA300 isolate LAC; mouse, in vivo) was “no differences were observed”. The “histological analysis of skin sections: abscess formation and ulceration” value (USA300 isolate LAC; mouse, in vivo) was “overall reduction in abscess formation and ulceration”, the “local Hla expression at the site of infection (western blot)” value (USA300 isolate LAC; mouse, in vivo) was “decreased local Hla expression” and the “local IL-1β in abscess tissue (multiplex)” value (USA300 isolate LAC; mouse, in vivo) was “significant reductions”. The “local IL-6 in abscess tissue (multiplex)” value (USA300 isolate LAC; mouse, in vivo) was “significant reductions”, the “local TNFα in abscess tissue (multiplex)” value (USA300 isolate LAC; mouse, in vivo) was “significant reductions” and the “transcription of il-1β in abscess tissue” value (USA300 isolate LAC; mouse, in vivo) was “reduced transcription”. For the same molecule, the “transcription of il-6 in abscess tissue” value (USA300 isolate LAC; mouse, in vivo) was “reduced transcription”, the “transcription of nlrp3 in abscess tissue” value (USA300 isolate LAC; mouse, in vivo) was “decreased transcription” and the “transcription of tnfα in abscess tissue” value (USA300 isolate LAC; mouse, in vivo) was “reduced transcription”. For the same molecule, the “morbidity (assessed by weight loss)” value (USA300 isolate LAC; mouse, in vivo, 0.25 mg/kg) was “significantly inhibited”, the abscess formation (USA300 isolate LAC; mouse, in vivo, sc, 0.25 mg/kg) was “significantly inhibited” and the “ulcer (dermonecrosis) formation” value (USA300 isolate LAC; mouse, in vivo, sc, 0.25 mg/kg) was “significantly inhibited”. The “intracellular killing by mouse macrophages” value [2] was “significantly increased intracellular killing”, the “agr::P3 promoter activation (quorum sensing)” value (agr::P3 promoter [3]; agr-I, agr-II, agr-III, agr-IV reporter strains, OHM 100 to 0.05 μM) was “inhibited quorum sensing by all four agr types” and the “in vitro agr-I transcription inhibition activity” value (agr::P3 promoter [3]; among polyhydroxyanthraquinones from Penicillium restrictum) was “most potent”. The “agr activation (agr::P3 promoter)” value (agr::P3 promoter [4]) was “significantly inhibited”, the abscess formation (MRSA isolate LAC [5]) was “limits abscess formation” and the “ulcer formation (dermonecrosis)” value (MRSA isolate LAC [5]) was “limits abscess formation and dermonecrosis”. The “bacterial growth (OD600)” value (S. aureus) was “do not impact bacterial growth; also recorded: absence of bactericidal or bacteriostatic effects”, the “direct binding to immobilized AgrAC” value (AgrAC-C199S) was “bound directly” and the “PMN survival in the presence of S. aureus supernatant” value (human PMNs) was “significantly increased survival”. For the same molecule, the “agr-mediated Hla expression (lysis of rabbit RBCs)” value (AgrC-WT isolate AH3469) was “inhibited Hla expression”, the “transcription of RNAIII” value [6] was “decreased transcription” and the “transcription of alpha-hemolysin (hla)” value [6] was “decreased transcription”. For the same molecule, the “intracellular killing by human PMNs” value ([7]; LAC pre-treated with 5 μg/mL OHM, MOI 1:1, vs vehicle) was “significantly increased intracellular killing”, the “opsonophagocytosis: total number and percent of bacteria phagocytosed” value ([7]; bacteria pre-treated with vehicle or OHM, human PMNs) was “equivalent” and the “inhibition of AgrAC binding to agr promoter DNA” value [8] was “dose-dependent inhibition”.
